From patent US9150546B2, “Triazine derivative and pharmaceutical composition comprising the same” (SHIONOGI & CO., LTD., priority 2009, dated 2015)
pIC50: −log10 of the molar value.

target: human P2X3 receptor (Homo sapiens (Human), UniProt P56373); assay: P2X3 receptor inhibition, ATP-evoked Fluo-3 fluorescence (FDSS 3000); format: cell-based; conditions: C6BU-1 cell transfected with human P2X3 receptor gene
Sequence (P56373 whole entry): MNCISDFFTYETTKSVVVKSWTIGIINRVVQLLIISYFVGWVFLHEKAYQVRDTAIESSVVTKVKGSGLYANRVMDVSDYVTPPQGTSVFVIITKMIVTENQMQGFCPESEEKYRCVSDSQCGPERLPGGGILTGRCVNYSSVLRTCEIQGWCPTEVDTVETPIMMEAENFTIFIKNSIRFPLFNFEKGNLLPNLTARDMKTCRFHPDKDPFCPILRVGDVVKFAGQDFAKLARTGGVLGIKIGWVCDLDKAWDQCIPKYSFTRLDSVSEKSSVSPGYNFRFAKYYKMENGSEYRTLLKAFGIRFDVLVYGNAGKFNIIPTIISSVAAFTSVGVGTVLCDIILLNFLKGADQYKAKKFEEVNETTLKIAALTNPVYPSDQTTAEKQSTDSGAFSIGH

SMILES	pIC50
CC(C)Oc1ccc(Nc2nc(=O)n(CCO)c(=O)n2Cc2ccc(F)cc2F)cc1F [I-340]	6.47
CC(C)Oc1ccc(/N=c2\[nH]c(=O)n(CCC(C)(C)C(=O)O)c(=O)n2Cc2ccc(Cl)cc2)cc1Cl [I-421]	7.72
CCOC(=O)C1(Cn2c(=O)[nH]/c(=N\c3ccc(OC(C)C)c(F)c3)n(Cc3ccc(Cl)cc3)c2=O)CC1 [I-422]	8.22
O=c1nc(Nc2cccc(-c3ccon3)c2)n(Cc2ccc(Cl)cc2)c(=O)n1CCO [I-314]	6.26
COC(=O)[C@@H](C)Cn1c(=O)[nH]/c(=N\c2ccc(OC(C)C)c(Cl)c2)n(CC2CCCCC2)c1=O [I-548]	7.92
CC(C)Oc1ccc(Nc2nc(=O)n(CCCO)c(=O)n2Cc2ccc(Cl)cc2)cc1Cl [I-362]	8.15
COC(=O)C(C)(C)Cn1c(=O)[nH]/c(=N\c2ccc3oc(C)nc3c2)n(Cc2ccc(Cl)cc2)c1=O [I-488]	6.91
COc1ccc(/N=c2\[nH]c(=O)n(CC(C)(C)C(=O)O)c(=O)n2Cc2ccc(Cl)cc2)cc1C [I-447]	6.55
CC(C)Oc1ccc(Nc2nc(=O)n(CC(CO)CO)c(=O)n2Cc2ccc(Cl)cc2)cc1 [I-368]	7.39
CCN(CC)c1nc(=O)n(Cc2ccc(Cl)cc2)/c(=N/c2ccc(OC(C)C)c(Cl)c2)[nH]1 [II-013]	6.37
CCOc1ccc(Nc2nc(=O)n(CCO)c(=O)n2Cc2ccc(Cl)cc2)cc1 [I-307]	6.60
CC(C)Oc1ccc(/N=c2\[nH]c(OCC(C)(C)C(=O)O)nc(=O)n2Cc2ccc(Cl)cc2)cc1Cl [II-010]	6.46
COC(=O)[C@@H](C)Cn1c(=O)[nH]/c(=N\c2ccc(OC(C)C)c(C)c2)n(CC2CCCCC2)c1=O [I-555]	7.89
CC(C)Oc1ccc(/N=c2\[nH]c(=O)n(CC3(C(=O)O)CC3)c(=O)n2Cc2ccc(Cl)cc2)cc1F [I-424]	7.31
CC(C)Oc1ccc(Nc2nc(=O)n(CCOC3CCCCO3)c(=O)n2Cc2ccc(Cl)cc2)cc1Cl (stereo not shown) [I-350]	8.00
Cc1ccc(Cn2c(=O)n(CC(C)(C)C(=O)O)c(=O)[nH]/c2=N\c2ccc(OC(C)C)c(Cl)c2)cc1 [I-408]	8.00
Cc1nc2cc(/N=c3\[nH]c(=O)n(CC(C)(C)C(=O)O)c(=O)n3Cc3ccc(Cl)cc3)ccc2o1 [I-497]	6.34
CC(C)Oc1ccc(/N=c2\[nH]c(=O)n(CC(=O)NCC(=O)O)c(=O)n2Cc2ccc(Cl)cc2)cc1F [I-400]	7.36
COC(=O)[C@@H](C)Cn1c(=O)[nH]/c(=N\c2ccc(OC(C)C)c(F)c2)n(Cc2ccc(C)cc2)c1=O [I-515]	8.22
COC(=O)C(C)(C)Cn1c(=O)[nH]/c(=N\c2ccc(O)c(Cl)c2)n(Cc2ccc(Cl)cc2)c1=O [I-426]	6.68
COC(=O)C(C)(C)Cn1c(=O)[nH]/c(=N\c2cccc(OC(F)(F)F)c2)n(Cc2ccc(Cl)cc2)c1=O [I-467]	7.43
COC(=O)[C@H](C)Cn1c(=O)[nH]/c(=N\c2ccc(OC(C)C)c(Cl)c2)n(Cc2ccc(Cl)cc2)c1=O [I-457]	8.52
Cc1ccc(Cn2c(=O)n(C[C@H](C)C(=O)O)c(=O)[nH]/c2=N\c2ccc(OC(C)C)c(Cl)c2)cc1 [I-518]	8.15
Cc1ccc(Cn2c(=O)n(CCCC(=O)O)c(=O)[nH]/c2=N\c2ccc(OC(C)C)c(Cl)c2)cc1 [I-519]	7.92
COC(=O)C[C@H](C)n1c(=O)[nH]/c(=N\c2ccc(OC(C)C)c(C)c2)n(Cc2ccc(Cl)cc2)c1=O [I-524]	7.22
CC(C)Oc1ccc(/N=c2\[nH]c(=O)n(C[C@H](C)C(=O)O)c(=O)n2Cc2ccc(Cl)cc2)cc1Cl [I-461]	8.05

SMILES	pIC50
COC(=O)C[C@H](C)n1c(=O)[nH]/c(=N\c2ccc(OC(C)C)c(F)c2)n(Cc2ccc(Cl)cc2)c1=O [I-523]	7.14
CC(C)n1c(=O)nc(Nc2cccc(F)c2)n(Cc2ccc(F)cc2)c1=O [I-182]	6.15
CC(C)Oc1ccc(/N=c2\[nH]c(=O)n(CCC(C)(C)C(=O)OCc3ccccc3)c(=O)n2Cc2ccc(Cl)cc2)cc1Cl [I-407]	7.57
CCOc1ccc(/N=c2\[nH]c(=O)n(C[C@H](C)C(=O)O)c(=O)n2Cc2ccc(Cl)cc2)cc1C [I-536]	7.34
Cc1cc(/N=c2\[nH]c(=O)n(C[C@H](C)C(=O)O)c(=O)n2CC2CCCCC2)ccc1OC(C)C [I-559]	7.01
CC(C)(Cn1c(=O)[nH]/c(=N\c2cccc(Cl)c2)n(Cc2ccc(Cl)cc2)c1=O)C(=O)O [I-468]	6.86
CC(C)Oc1ccc(Nc2nc(=O)n(CC(=O)N(C)C)c(=O)n2Cc2ccc(Cl)cc2)cc1F [I-293]	6.45
Cc1ccc(Cn2c(=O)n(CCCC(=O)O)c(=O)[nH]/c2=N\c2ccc3oc(C)cc3c2)cc1 [I-520]	7.10
CCOc1ccc(Nc2nc(=O)n(CCCO)c(=O)n2Cc2ccc(Cl)cc2)cc1 [I-361]	7.12
Cc1ccc(/N=c2\[nH]c(=O)n(CC(C)(C)C(=O)O)c(=O)n2Cc2ccc(Cl)cc2)cc1C [I-464]	6.25
CC(C)Oc1ccc(Nc2nc(OCCO)nc(=O)n2Cc2ccc(Cl)cc2)cc1F [II-002]	7.10
CCOc1ccc(/N=c2\[nH]c(=O)n(C[C@@H](C)C(=O)O)c(=O)n2Cc2ccc(Cl)cc2)cc1C [I-485]	6.70
COC(=O)C(C)(C)Cn1c(=O)[nH]/c(=N\c2ccc(OC(C)C)c(Cl)c2)n(Cc2ccc(Cl)cc2)c1=O [I-399]	8.10
CC(C)Oc1ccc(/N=c2\[nH]c(=O)n(CCC(=O)NCC#N)c(=O)n2Cc2ccc(Cl)cc2)cc1F [I-439]	7.74
O=c1nc(Nc2ccc(-c3ccon3)cc2)n(Cc2ccc(Cl)cc2)c(=O)n1CCN1CCOCC1 [I-287]	6.65
CCCOc1ccc(Nc2nc(=O)n(CCO)c(=O)n2Cc2ccc(Cl)cc2)cc1F [I-321]	7.48
COC(=O)c1ccc(Nc2nc(=O)n(C(C)C)c(=O)n2Cc2ccc(F)cc2)cc1Cl [I-238]	6.18
COC(=O)C(C)n1c(=O)[nH]/c(=N\c2ccc(OC(C)C)c(F)c2)n(Cc2ccc(Cl)cc2)c1=O (stereo not shown) [I-474]	7.85
CCCn1ccc2cc(/N=c3\[nH]c(=O)n(CC(C)(C)C(=O)OC)c(=O)n3Cc3ccc(Cl)cc3)ccc21 [I-507]	6.52
CCOc1ccc(Nc2nc(=O)n(C[C@H](C)C(=O)OC)c(=O)n2Cc2ccc(Cl)cc2)cc1Cl [I-533]	8.00
CC(C)Oc1ccc(Nc2nc(=O)n(CCO)c(=O)n2Cc2ccc(F)cc2)cc1F [I-333]	6.72
CC(C)Oc1ccc(/N=c2\[nH]c(=O)n(CC(C)(C)C(=O)O)c(=O)n2Cc2ccc(Cl)cc2)cc1Cl [I-401]	8.15
CC(C)Oc1ccc(Nc2nc(=O)n(CCO)c(=O)n2Cc2ccc(F)c(F)c2)cc1F [I-339]	6.11
O=c1nc(Nc2ccc(OC(F)(F)F)cc2)n(Cc2ccc(Cl)cc2)c(=O)n1CCO [I-383]	6.27
COC(=O)C(C)(C)Cn1c(=O)[nH]/c(=N\c2ccc(OC(C)C)c(Cl)c2)n(CC2CCCCC2)c1=O [I-547]	7.96
CC(C)Oc1ccc(Nc2nc(=O)n(CC3CC3)c(=O)n2Cc2ccc(Cl)cc2)cc1F [I-271]	7.49

SMILES	pIC50
CC(C)Oc1ccc(Nc2nc(=O)n(C(C)C)c(=O)n2Cc2ccc(Cl)nc2)cc1Cl [I-235]	6.01
CC(C)Oc1ccc(/N=c2\[nH]c(=O)n(C[C@H](C)C(=O)O)c(=O)n2Cc2ccc(Cl)cc2)cc1F [I-456]	8.10
CCOc1ccc(/N=c2\[nH]c(=O)n(C[C@H](C)C(=O)O)c(=O)n2Cc2ccc(Cl)cc2)cc1Cl [I-539]	8.15
COC(=O)C(C)(C)Cn1c(=O)[nH]/c(=N\c2ccc(OC(C)C)c(Cl)c2)n(CC2CCCC2)c1=O [I-550]	7.48
CC(C)Cn1ccc2cc(/N=c3\[nH]c(=O)n(CC(C)(C)C(=O)O)c(=O)n3Cc3ccc(Cl)cc3)ccc21 [I-508]	6.29
Cc1cc(/N=c2\[nH]c(=O)n(C[C@H](C)C(=O)O)c(=O)n2Cc2ccc(Cl)cc2)ccc1OC(C)C [I-538]	7.80
COC(=O)C(C)(C)Cn1c(=O)[nH]/c(=N\c2ccc(OC(C)C)c(Cl)c2)n(CC2CCCCCC2)c1=O [I-549]	7.72
CC(C)Oc1ccc(/N=c2\[nH]c(=O)n(C[C@H](C)C(=O)O)c(=O)n2Cc2ccc(Cl)cc2)cc1 [I-537]	7.72
COc1nc(=O)n(Cc2ccc(Cl)cc2)/c(=N/c2ccc(OC(C)C)c(Cl)c2)[nH]1 [I-433]	6.70
CCC[S+]([O-])c1ccc(Nc2nc(=O)n(CCO)c(=O)n2Cc2ccc(Cl)cc2)cc1 (stereo not shown) [I-385]	6.04
CC(C)Oc1ccc(Nc2nc(=O)n(CCN3C(=O)CNC3=O)c(=O)n2Cc2ccc(Cl)cc2)cc1F [I-391]	6.88
CC(C)Oc1ccc(/N=c2\[nH]c(=O)n(CCC(=O)NCC(N)=O)c(=O)n2Cc2ccc(Cl)cc2)cc1F [I-440]	7.26
CC(C)Oc1ccc(/N=c2\[nH]c(=O)n(CCC(C)(C)C(=O)OCc3ccccc3)c(=O)n2Cc2ccc(Cl)cc2)cc1F [I-406]	7.52
Cc1ccc(Cn2c(=O)n(CC(=O)NC3(C(=O)O)CC3)c(=O)[nH]/c2=N\c2ccc(OC(C)C)c(F)c2)cc1 [I-419]	7.15
COC(=O)[C@@H](C)Cn1c(=O)[nH]/c(=N\c2ccc3oc(C)cc3c2)n(Cc2ccc(Cl)cc2)c1=O [I-534]	7.74
CC(C)Oc1ccc(/N=c2\[nH]c(=O)n(CC(=O)NCCO)c(=O)n2Cc2ccc(Cl)cc2)cc1Cl [I-437]	8.22
COC(=O)C(C)(C)Cn1c(=O)[nH]/c(=N\c2ccc(OC(C)C)c(C)c2)n(Cc2ccc(Cl)cc2)c1=O [I-431]	8.40
O=c1nc(Nc2ccc(OC3CCCC3)cc2)n(Cc2ccc(Cl)cc2)c(=O)n1CCO [I-322]	6.95
O=c1nc(Nc2ccc(N3CCCCC3)cc2)n(Cc2ccc(Cl)cc2)c(=O)n1CCO [I-311]	6.85
CNC(=O)NCCn1c(=O)nc(Nc2ccc(OC(C)C)c(F)c2)n(Cc2ccc(Cl)cc2)c1=O [I-387]	7.43
CCOC(=O)CCCn1c(=O)[nH]/c(=N\c2ccc(OC(C)C)c(C)c2)n(Cc2ccc(Cl)cc2)c1=O [I-502]	7.70
CC(C)(Cn1c(=O)[nH]/c(=N\c2cccc(C(F)(F)F)c2)n(Cc2ccc(Cl)cc2)c1=O)C(=O)O [I-476]	7.46
CC(C)(Cn1c(=O)[nH]/c(=N\c2cccc(OC(F)(F)F)c2)n(Cc2ccc(Cl)cc2)c1=O)C(=O)O [I-469]	7.00
CC(C)Oc1ccc(/N=c2\[nH]c(=O)n(CCCC(=O)O)c(=O)n2Cc2ccc(Cl)cc2)cc1Cl [I-500]	7.89
